Assay results reported in ChEMBL document CHEMBL3868622, “Development of 1-aryl-3-furanyl/thienyl-imidazopyridine templates for inhibitors against hypoxia inducible factor (HIF)-1 transcriptional activity” (Bioorg Med Chem Lett, 2016).

target: Hypoxia inducible factors; HIF-1-alpha, HIF-2-alpha (Homo sapiens, UniProt Q16665+Q99814); test: Inhibition of hypoxia-induced HIF1 transcriptional activity in human HeLa cells measured after 12 hrs by luciferase reporter gene assay; type: cell-based

Row | SMILES | IC50
1 | OCc1ccc(-c2nc(Cc3ccccc3)c3ccccn23)o1 | 56 µM
2 | OCc1ccc(-c2nc(-c3ccccc3CO)c3ccccn23)s1 | 9.4 µM
3 | OCc1ccc(-c2nc(-c3cc(C(F)(F)F)cc(C(F)(F)F)c3)c3ccccn23)o1 | 25 µM
4 | OCc1ccc(-c2nc(-c3ccccc3)c3ccccn23)s1 | 3.7 µM
5 | OCc1ccc(-c2nc(-c3ccncc3)c3ccccn23)s1 | 9.1 µM

Next, values leading:

Row | IC50 | SMILES
6 | 6.5 µM | OCc1ccc(-c2nc(-c3ccccc3CO)c3ccccn23)o1
7 | 17 µM | OCc1ccc(-c2nc(-c3ccc(C(F)(F)F)cc3)c3ccccn23)o1
8 | 61 µM | COc1ccc(-c2nc(-c3ccc(CO)o3)n3ccccc23)cc1
9 | 7.4 µM | N#Cc1ccc(-c2nc(-c3ccc(CO)o3)n3ccccc23)cc1
10 | 75 µM | COc1ccccc1-c1nc(-c2ccc(CO)o2)n2ccccc12
11 | 39 µM | Cc1ccc(-c2nc(-c3ccc(CO)o3)n3ccccc23)cc1
12 | 70 µM | OCc1ccc(-c2nc(-c3ccccc3)c3ccccn23)o1
